# Results reported in US5395838A, “6-substituted quinazolines processing anti-tumor activity” (Imperial Chemical Industries PLC, priority 1988, dated 1995).
# Where two headings read alike, the source gives them in different places.
# Legend:
# [1] = system: human breast, ovarian and liver cancer; conditions: clinical trials; cited from earlier work
# [2] = particularly in relation to the liver and kidney; cited from earlier work
# L1210 = experiment: Test (b): inhibition of the growth of the leukaemia cell line L1210 in cell culture; assay type: cell-based; conditions: Mus musculus, read-out: IC50 against the L1210 cell line [Test (b)]
# Source text: (b) An assay which determines the ability of a test compound to inhibit the growth of the leukaemia cell line L1210 in cell culture. The test is similar to that described in UK Patent Specification No. 2065653B;
# thymidylate synthase = target: T1, thymidylate synthase (Mus musculus, UniProt P07607); experiment: Test (a): in vitro inhibition of the enzyme thymidylate synthase (partially purified from L1210 mouse leukaemia cells); assay type: biochemical
# T1 construct: obtained in partially purified form from L1210 mouse leukaemia cells; endogenous in cells; host or cells: L1210 mouse leukaemia cells (enzyme partially purified)
# Source text: (a) An in vitro assay which determines the ability of a test compound to inhibit the enzyme thymidylate synthase.
# T1 sequence (P07607 whole entry): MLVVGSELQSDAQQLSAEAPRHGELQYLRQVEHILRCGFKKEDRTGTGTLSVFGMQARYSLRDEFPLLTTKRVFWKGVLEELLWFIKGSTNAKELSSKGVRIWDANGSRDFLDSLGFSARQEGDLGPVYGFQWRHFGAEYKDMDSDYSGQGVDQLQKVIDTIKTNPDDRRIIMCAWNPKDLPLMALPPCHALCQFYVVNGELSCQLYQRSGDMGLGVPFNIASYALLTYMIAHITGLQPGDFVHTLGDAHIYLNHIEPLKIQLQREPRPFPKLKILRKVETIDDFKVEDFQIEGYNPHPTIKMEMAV
Structure (SMILES),"activity against human breast, ovarian and liver cancer [1]",symptoms of toxicity in humans [2],IC50 (L1210) [nM],IC50 (thymidylate synthase) [nM],"IC50 (thymidylate synthase; enzyme from L1210 mouse leukaemia cells, read-out: IC50 against thymidylate synthase [Test (a)]) [nM]"
C#CCN(Cc1ccc2nc(N)[nH]c(=O)c2c1)c1ccc(C(=O)N[C@@H](CCC(=O)O)C(=O)O)cc1 [CB3717],"promising activity against human breast, ovarian and liver cancer","shows symptoms of toxicity in humans, particularly in relation to the liver and kidney",–,–,–
"C#CCN(Cc1ccc2nc(C)[nH]c(=O)c2c1)c1ccc(C(=O)NCc2ccccc2[N+](=O)[O-])cc1 [p-[N-(3,4-dihydro-2-methyl-4-oxoquinazolin-6-ylmethyl)-N-(prop-2-ynyl)amino]-N-(2-nitrobenzyl)benzamide]",–,–,1800,50,–
"C#CCN(Cc1ccc2nc(C)nc(O)c2c1)c1ccc(C(=O)NCc2ccccn2)cc1 [p-[N-(3,4-dihydro-2-methyl-4-oxoquinazolin-6-ylmethyl)-N-(prop-2-ynyl)amino]-N-(2-pyridylmethyl)benzamide]",–,–,3900,–,500
